Here are results for 12 molecules from patent publication US20250171437A1 (Agios Pharmaceuticals,Inc., priority 2022, published 2025).

The AC50 is the concentration giving half of the maximal activity seen.

SMILES strings stand for the structures.

This test has as its target T1, human PAH with the R408W mutation (A375 R408W cells) (Homo sapiens, UniProt P00439, R408W).
T1 construct: expressed in transfected cells
T1 sequence (P00439 1-452 R408W): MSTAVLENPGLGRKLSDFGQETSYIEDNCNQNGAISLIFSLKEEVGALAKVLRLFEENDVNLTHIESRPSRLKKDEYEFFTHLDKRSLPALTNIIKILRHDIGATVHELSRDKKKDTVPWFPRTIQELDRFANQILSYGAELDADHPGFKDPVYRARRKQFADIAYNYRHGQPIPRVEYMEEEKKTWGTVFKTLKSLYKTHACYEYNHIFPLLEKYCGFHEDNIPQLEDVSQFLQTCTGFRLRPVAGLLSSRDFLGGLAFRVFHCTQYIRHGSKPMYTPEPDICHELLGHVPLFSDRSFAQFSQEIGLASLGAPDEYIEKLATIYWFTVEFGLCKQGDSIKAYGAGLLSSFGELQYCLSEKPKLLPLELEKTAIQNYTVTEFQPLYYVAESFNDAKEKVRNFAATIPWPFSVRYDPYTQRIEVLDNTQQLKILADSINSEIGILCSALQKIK
As to the kind of experiment: Cell Based Phenylalanine Flux Assay. The conditions noted are these: A375 R408W cells; 24 hrs with compound, then 20 μM sepiapterin and 800 μM 13C9,15N-Phenylalanine for 4 hours; 13C-Tyrosine by LC-MS; average where tested multiple times. A digest of the protocol: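 LC-MS quantitation of 13C-tyrosine in media gave AC50 values. Stable A375 R408W PAH cells were preincubated 24 h with compound, then fed 800 μM labelled Phe plus 20 μM sepiapterin for 4 h. Dose curves were 10-point, tested in duplicate, averaged over repeat runs.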
As to `Cn1nc(C(F)F)cc1C(=O)N1CCc2[nH]cnc2[C@@H]1c1nc2cccc(F)c2o1` [Example 734, (R)-(3-(difluoromethyl)-1-methyl-1H-pyrazol-5-yl)(4-(7-fluorobenzo[d]oxazol-2-yl)-6,7-dihydro-1H-imidazo[4,5-c]pyridin-5(4H)-yl)methanone], the half-maximal activity concentration (AC50) lay within 1000 to 5000 nM. Then `Cc1cccc2nc([C@@H]3c4nc[nH]c4CCN3C(=O)c3cc(C(F)F)nn3C)oc12` [Example 735], with at most 500 nM; and `Cc1cccc2nc([C@H]3c4nc[nH]c4CCN3C(=O)c3cc(C(F)F)nn3C)oc12` [Example 736], with 1000 to 5000 nM. As for `Cc1ccc2oc([C@@H]3c4nc[nH]c4CCN3C(=O)c3oc(-c4ccccn4)nc3C(F)F)nc2c1` [Example 737, (S)-(4-(difluoromethyl)-2-(pyridin-2-yl)oxazol-5-yl)(4-(5-methylbenzo[d]oxazol-2-yl)-6,7-dihydro-1H-imidazo[4,5-c]pyridin-5(4H)-yl)methanone], the AC50 was at most 500 nM. `Cc1ccc2oc([C@H]3c4nc[nH]c4CCN3C(=O)c3oc(-c4ccccn4)nc3C(F)F)nc2c1` [Example 738, (R)-(4-(difluoromethyl)-2-(pyridin-2-yl)oxazol-5-yl)(4-(5-methylbenzo[d]oxazol-2-yl)-6,7-dihydro-1H-imidazo[4,5-c]pyridin-5(4H)-yl)methanone]: the AC50 fell in the range of 1000 to 5000 nM. In the case of `O=C(c1oc(-c2ccccn2)nc1C(F)F)N1CCc2[nH]cnc2[C@@H]1c1nc2ccccc2o1` [Example 739, (R)-(4-(benzo[d]oxazol-2-yl)-6,7-dihydro-1H-imidazo[4,5-c]pyridin-5(4H)-yl)(4-(difluoromethyl)-2-(pyridin-2-yl)oxazol-5-yl)methanone], the AC50 was in the range of 500 to 1000 nM.

For `O=C(c1oc(-c2ccccn2)nc1C(F)F)N1CCc2[nH]cnc2[C@H]1c1nc2ccccc2o1` [Example 740, (S)-(4-(benzo[d]oxazol-2-yl)-6,7-dihydro-1H-imidazo[4,5-c]pyridin-5(4H)-yl)(4-(difluoromethyl)-2-(pyridin-2-yl)oxazol-5-yl)methanone], the AC50 is at most 500 nM. Then `O=C(c1oc(-c2cncnc2)nc1C(F)F)N1CCc2[nH]cnc2[C@@H]1c1nc2cccc(F)c2o1` [Example 741, (R)-(4-(difluoromethyl)-2-(pyrimidin-5-yl)oxazol-5-yl)(4-(7-fluorobenzo[d]oxazol-2-yl)-6,7-dihydro-1H-imidazo[4,5-c]pyridin-5(4H)-yl)methanone], with at most 500 nM. Then `O=C(c1oc(-c2cncnc2)nc1C(F)F)N1CCc2[nH]cnc2[C@H]1c1nc2cccc(F)c2o1` [Example 742, (S)-(4-(difluoromethyl)-2-(pyrimidin-5-yl)oxazol-5-yl)(4-(7-fluorobenzo[d]oxazol-2-yl)-6,7-dihydro-1H-imidazo[4,5-c]pyridin-5(4H)-yl)methanone], with at most 500 nM; and `Cc1ccc(F)c2nc([C@@H]3c4nc[nH]c4CCN3C(=O)c3ocnc3C(F)F)oc12` [Example 743, (S)-(4-(difluoromethyl)oxazol-5-yl)(4-(4-fluoro-7-methylbenzo[d]oxazol-2-yl)-6,7-dihydro-1H-imidazo[4,5-c]pyridin-5(4H)-yl)methanone], with at most 500 nM. Next, `Cc1ccc(F)c2nc([C@H]3c4nc[nH]c4CCN3C(=O)c3ocnc3C(F)F)oc12` [Example 744, (R)-(4-(difluoromethyl)oxazol-5-yl)(4-(4-fluoro-7-methylbenzo[d]oxazol-2-yl)-6,7-dihydro-1H-imidazo[4,5-c]pyridin-5(4H)-yl)methanone]: at most 500 nM; `Cc1ccc2oc([C@@H]3c4nc[nH]c4CCN3C(=O)c3ncnn3C)nc2c1` [Example 745, (S)-(1-methyl-1H-1,2,4-triazol-5-yl)(4-(5-methylbenzo[d]oxazol-2-yl)-6,7-dihydro-1H-imidazo[4,5-c]pyridin-5(4H)-yl)methanone]: 500 to 1000 nM.
